Tests used:
[1] = target: Rat α7 nAChR (α-BGTX-sensitive) (Rattus norvegicus, UniProt Q05941); assay: biochemical; assay type: binding
[2] = both, human, in vivo, 0.5 mg
Human A1 = Human A1 (Homo sapiens, UniProt P30542); assay: Radioligand binding: Human A1
Human B2 = Human B2 (Homo sapiens, UniProt P30411); assay: Radioligand binding: Human B2
Rat AMPA = assay: Radioligand binding: Rat AMPA; conditions: [3H]-AMPA 8 nM
Human COX2 = Human COX2 (Homo sapiens, UniProt P35354); assay: Enzyme inhibition: Human COX2
Human D2S = Human D2S (Homo sapiens, UniProt P14416); assay: Radioligand binding: Human D2S
Human AT1 = Human AT1 (Homo sapiens, UniProt P30556); assay: Radioligand binding: Human AT1
Rat 5-HT1B = Rat 5-HT1B (Rattus norvegicus, UniProt P28564); assay: Radioligand binding: Rat 5-HT1B
Human 5-HT2A = Human 5-HT2A (Homo sapiens, UniProt P28223); assay: Radioligand binding: Human 5-HT2A
SK+Ca channel = assay: Radioligand binding: SK+Ca channel; conditions: [125I]-apamin 0.004 nM
Human VPAC2 (VIP2) = Human VPAC2 (VIP2) (Homo sapiens, UniProt P41587); assay: Radioligand binding: Human VPAC2
Rat dopamine transporter = Rat dopamine transporter (Rattus norvegicus, UniProt P23977); assay: Radioligand binding: Rat dopamine transporter
Rat GABA (non-selective) = assay: Radioligand binding: Rat GABA; conditions: [3H]-GABA 10 nM
[3] = target: Mouse sst (non-selective); assay: Radioligand binding: Mouse sst; conditions: [125I]-Tyr11-somatostatin 0.05 nM
[4] = read-out: % Inhibition of specific binding (1 μM)

Rat α7 nAChR (α-BGTX-sensitive), sequence (Q05941 23-502): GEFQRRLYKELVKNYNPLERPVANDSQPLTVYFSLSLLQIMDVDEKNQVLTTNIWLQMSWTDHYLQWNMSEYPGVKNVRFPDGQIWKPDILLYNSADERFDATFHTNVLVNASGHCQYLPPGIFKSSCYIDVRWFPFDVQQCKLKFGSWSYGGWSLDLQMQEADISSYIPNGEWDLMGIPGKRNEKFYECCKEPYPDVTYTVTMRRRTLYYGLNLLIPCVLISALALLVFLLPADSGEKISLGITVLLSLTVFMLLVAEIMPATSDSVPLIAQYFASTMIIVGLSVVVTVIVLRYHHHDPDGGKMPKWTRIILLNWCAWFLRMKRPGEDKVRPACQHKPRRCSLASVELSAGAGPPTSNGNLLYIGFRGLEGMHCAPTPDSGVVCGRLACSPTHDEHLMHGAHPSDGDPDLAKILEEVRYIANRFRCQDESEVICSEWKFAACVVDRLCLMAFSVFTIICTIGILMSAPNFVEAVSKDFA
Human AT1, sequence (P30556 whole entry): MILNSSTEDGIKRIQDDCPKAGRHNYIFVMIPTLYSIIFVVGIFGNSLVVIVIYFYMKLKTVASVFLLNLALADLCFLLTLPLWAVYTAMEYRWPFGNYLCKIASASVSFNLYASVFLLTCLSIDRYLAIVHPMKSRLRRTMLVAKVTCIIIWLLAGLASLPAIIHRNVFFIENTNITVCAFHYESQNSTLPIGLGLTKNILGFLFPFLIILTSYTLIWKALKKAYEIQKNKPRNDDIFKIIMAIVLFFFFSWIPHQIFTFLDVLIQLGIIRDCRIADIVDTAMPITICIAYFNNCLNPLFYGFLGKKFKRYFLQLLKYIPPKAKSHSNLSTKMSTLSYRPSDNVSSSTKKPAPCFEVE
Rat dopamine transporter, sequence (P23977 whole entry): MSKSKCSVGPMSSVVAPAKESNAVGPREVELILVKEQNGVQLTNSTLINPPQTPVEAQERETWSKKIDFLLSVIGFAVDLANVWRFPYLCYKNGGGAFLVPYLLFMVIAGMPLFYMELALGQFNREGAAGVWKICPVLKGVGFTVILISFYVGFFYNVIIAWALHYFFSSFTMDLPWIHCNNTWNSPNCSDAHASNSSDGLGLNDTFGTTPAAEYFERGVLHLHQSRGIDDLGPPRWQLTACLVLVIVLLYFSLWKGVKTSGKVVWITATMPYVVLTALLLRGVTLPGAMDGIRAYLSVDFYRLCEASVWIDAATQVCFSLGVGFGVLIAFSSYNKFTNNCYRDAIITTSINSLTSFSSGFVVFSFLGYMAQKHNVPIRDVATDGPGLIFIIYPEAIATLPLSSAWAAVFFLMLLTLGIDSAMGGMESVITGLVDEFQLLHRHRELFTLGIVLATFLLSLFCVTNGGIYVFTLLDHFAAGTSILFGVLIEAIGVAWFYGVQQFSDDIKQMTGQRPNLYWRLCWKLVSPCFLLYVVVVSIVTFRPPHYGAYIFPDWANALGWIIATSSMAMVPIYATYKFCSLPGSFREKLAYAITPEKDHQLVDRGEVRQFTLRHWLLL
Human COX2, sequence (P35354 18-604): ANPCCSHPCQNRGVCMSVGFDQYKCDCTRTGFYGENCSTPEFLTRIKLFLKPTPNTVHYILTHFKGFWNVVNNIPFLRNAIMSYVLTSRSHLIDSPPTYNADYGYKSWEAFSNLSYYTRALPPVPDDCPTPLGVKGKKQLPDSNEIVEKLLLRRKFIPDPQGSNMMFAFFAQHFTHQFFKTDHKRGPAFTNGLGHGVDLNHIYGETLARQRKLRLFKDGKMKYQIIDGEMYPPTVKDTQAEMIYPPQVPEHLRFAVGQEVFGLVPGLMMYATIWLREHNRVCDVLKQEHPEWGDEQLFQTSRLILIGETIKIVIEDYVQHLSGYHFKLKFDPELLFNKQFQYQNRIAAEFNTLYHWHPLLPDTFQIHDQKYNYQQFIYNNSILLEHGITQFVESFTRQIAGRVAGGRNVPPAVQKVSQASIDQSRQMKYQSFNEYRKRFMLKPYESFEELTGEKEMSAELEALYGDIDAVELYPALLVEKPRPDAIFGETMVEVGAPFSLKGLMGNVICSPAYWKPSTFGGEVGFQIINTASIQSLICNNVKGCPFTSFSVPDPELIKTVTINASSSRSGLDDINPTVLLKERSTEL
Human B2, sequence (P30411 whole entry): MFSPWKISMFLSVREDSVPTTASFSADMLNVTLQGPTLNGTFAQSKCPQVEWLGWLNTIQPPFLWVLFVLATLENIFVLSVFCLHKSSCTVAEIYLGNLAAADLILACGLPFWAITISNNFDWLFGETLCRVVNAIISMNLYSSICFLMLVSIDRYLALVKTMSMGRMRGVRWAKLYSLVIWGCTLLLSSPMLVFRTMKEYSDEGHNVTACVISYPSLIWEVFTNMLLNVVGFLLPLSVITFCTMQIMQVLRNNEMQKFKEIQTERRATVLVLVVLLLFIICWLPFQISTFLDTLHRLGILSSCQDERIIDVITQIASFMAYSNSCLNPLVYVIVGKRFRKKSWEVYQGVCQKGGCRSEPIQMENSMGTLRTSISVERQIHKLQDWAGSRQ
Human D2S, sequence (P14416 1-414 isoform P14416-2): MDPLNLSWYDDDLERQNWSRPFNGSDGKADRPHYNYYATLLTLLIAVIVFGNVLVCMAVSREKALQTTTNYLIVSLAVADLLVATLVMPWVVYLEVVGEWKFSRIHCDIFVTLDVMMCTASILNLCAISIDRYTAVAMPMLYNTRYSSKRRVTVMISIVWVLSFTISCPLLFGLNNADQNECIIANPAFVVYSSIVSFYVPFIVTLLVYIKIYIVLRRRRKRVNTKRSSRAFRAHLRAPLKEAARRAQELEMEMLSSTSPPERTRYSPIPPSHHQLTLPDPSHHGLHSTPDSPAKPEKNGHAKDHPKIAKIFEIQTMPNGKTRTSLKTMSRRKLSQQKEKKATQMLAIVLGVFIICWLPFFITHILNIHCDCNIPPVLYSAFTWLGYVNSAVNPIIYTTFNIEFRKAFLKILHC
Human A1, sequence (P30542 whole entry): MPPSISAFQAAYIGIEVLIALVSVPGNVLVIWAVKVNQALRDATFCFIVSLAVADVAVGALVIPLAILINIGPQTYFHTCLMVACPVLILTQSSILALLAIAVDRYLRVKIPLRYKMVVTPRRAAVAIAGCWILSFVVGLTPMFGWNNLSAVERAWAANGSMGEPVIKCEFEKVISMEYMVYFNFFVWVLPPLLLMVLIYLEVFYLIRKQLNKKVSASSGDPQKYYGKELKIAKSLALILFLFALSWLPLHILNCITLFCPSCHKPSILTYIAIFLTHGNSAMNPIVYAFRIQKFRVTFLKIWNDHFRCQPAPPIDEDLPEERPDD
Human VPAC2 (VIP2), sequence (P41587 24-438): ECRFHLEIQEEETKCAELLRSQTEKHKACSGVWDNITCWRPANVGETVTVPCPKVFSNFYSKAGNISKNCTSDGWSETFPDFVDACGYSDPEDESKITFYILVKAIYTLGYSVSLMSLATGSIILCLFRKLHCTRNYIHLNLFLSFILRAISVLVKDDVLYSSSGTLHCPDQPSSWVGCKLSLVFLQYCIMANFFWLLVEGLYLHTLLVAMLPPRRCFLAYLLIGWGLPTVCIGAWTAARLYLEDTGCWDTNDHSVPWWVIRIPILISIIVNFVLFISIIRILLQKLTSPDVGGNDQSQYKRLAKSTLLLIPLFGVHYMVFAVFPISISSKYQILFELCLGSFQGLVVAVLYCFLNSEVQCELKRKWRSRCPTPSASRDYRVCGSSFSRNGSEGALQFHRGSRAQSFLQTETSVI
Human 5-HT2A, sequence (P28223 whole entry): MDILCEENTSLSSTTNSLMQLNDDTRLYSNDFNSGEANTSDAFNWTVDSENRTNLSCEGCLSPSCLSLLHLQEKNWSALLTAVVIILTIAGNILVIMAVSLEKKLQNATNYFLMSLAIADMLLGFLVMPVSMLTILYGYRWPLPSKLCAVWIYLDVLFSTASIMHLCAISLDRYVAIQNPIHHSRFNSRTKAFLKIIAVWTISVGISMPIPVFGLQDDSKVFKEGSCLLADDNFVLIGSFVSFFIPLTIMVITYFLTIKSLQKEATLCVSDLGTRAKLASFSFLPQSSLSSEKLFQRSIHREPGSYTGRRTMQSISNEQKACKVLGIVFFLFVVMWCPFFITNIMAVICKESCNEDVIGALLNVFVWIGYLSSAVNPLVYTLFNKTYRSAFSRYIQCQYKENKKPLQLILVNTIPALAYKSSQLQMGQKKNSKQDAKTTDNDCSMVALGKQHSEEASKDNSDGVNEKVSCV
Rat 5-HT1B, sequence (P28564 whole entry): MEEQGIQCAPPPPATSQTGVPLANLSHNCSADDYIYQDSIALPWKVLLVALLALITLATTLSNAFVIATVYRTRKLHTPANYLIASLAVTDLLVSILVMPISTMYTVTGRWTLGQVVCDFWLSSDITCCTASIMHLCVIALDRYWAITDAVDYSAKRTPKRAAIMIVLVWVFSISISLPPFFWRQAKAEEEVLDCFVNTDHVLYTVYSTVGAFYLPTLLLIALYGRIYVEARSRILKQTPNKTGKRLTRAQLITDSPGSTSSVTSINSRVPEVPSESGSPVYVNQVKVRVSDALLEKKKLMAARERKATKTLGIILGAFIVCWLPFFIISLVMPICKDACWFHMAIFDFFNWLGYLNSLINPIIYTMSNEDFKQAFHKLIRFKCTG

Structure (SMILES): COC(=O)N1CCC(CN2CCC(CNC(=O)c3cccc4[nH]c(C(C)C)nc34)CC2)CC1 [TD-8954, 4-(4-{[(2-isopropyl-1H-benzoimidazole-4-carbonyl)amino]methyl}-piperidin-1-ylmethyl)piperidine-1-carboxylic acid methyl ester]
- Ki [1]: > 1000 nM
- inhibition at 1 µM [1, 4]: 3%
- free plasma AUC0–24 [2]: 36.2 nM/h
- free plasma Cmax [2]: 3.4 nM/h
- Ki (Human A1): > 1000 nM
- inhibition at 1 µM (Human A1; [4]): -4%
- Ki (Human B2): > 1000 nM
- inhibition at 1 µM (Human B2; [4]): 3%
- pKi (Rat AMPA): <6
- % Inhibition of specific binding (1 μM) (Rat AMPA; TD-8954 1 μM): −4%
- IC50 (Human COX2): > 1000 nM
- inhibition at 1 µM (Human COX2; read-out: % Inhibition of control (1 μM)): -36%
- Ki (Human D2S): > 1000 nM
- inhibition at 1 µM (Human D2S; [4]): 6%
- Ki (Human AT1): > 1000 nM
- inhibition at 1 µM (Human AT1; [4]): 2%
- Ki (Rat 5-HT1B): > 1000 nM
- Ki (Human 5-HT2A): > 1000 nM
- pKi (SK+Ca channel): <6
- % Inhibition of specific binding (1 μM) (SK+Ca channel; TD-8954 1 μM): −4%
- Ki (Human VPAC2 (VIP2)): > 1000 nM
- inhibition at 1 µM (Human VPAC2 (VIP2); [4]): -19%
- Ki (Rat dopamine transporter): > 1000 nM
- inhibition at 1 µM (Rat dopamine transporter; [4]): 3%
- pKi (Rat GABA (non-selective)): <6
- % Inhibition of specific binding (1 μM) (Rat GABA (non-selective); TD-8954 1 μM): −6%
- pKi [3]: <6
- % Inhibition of specific binding (1 μM) ([3]; TD-8954 1 μM): −6%
